In the NIST ThermoML archive (doi:10.1016/j.jct.2017.08.004):

Experiment: molar heat capacity at constant pressure
Settings: 101.33 kPa, Small sample (50 mg) DSC

O[C@H]1[C@H](O)[C@@H](O)[C@H](O)[C@@H](O)[C@H]1O [cis-1,2,3,5-trans-4,6-cyclohexanehexol]
Settings	molar heat capacity at constant pressure [J/K/mol]
315.15 K, Crystal	232.92
316.15 K, Crystal	233.85
317.15 K, Crystal	235
318.15 K, Crystal	235.92
319.15 K, Crystal	236.78
320 K, Crystal	237.36
320.15 K, Crystal	237.59
321.15 K, Crystal	238.68
322.15 K, Crystal	239.43
323.15 K, Crystal	240.32
324.15 K, Crystal	241.22
325 K, Crystal	241.8
325.15 K, Crystal	242.06
326.15 K, Crystal	242.94
327.15 K, Crystal	243.8
328.15 K, Crystal	244.59
329.15 K, Crystal	245.47
330 K, Crystal	246.17
330.15 K, Crystal	246.24
331.15 K, Crystal	247.08
332.15 K, Crystal	247.89
333.15 K, Crystal	248.82
334.15 K, Crystal	249.61
335 K, Crystal	250.49
335.15 K, Crystal	250.35
336.15 K, Crystal	251.33
337.15 K, Crystal	251.96
338.15 K, Crystal	252.7
339.15 K, Crystal	253.75
340 K, Crystal	254.75
340.15 K, Crystal	254.49
341.15 K, Crystal	255.37
342.15 K, Crystal	256.24
343.15 K, Crystal	257.08
344.15 K, Crystal	258
345 K, Crystal	258.97
345.15 K, Crystal	258.77
346.15 K, Crystal	259.66
347.15 K, Crystal	260.52
348.15 K, Crystal	261.32
349.15 K, Crystal	262.12
350 K, Crystal	263.15
350.15 K, Crystal	262.98
351.15 K, Crystal	263.82
352.15 K, Crystal	264.56
353.15 K, Crystal	265.46
354.15 K, Crystal	266.43
355 K, Crystal	267.28
355.15 K, Crystal	268.62
356.15 K, Crystal	269.08
357.15 K, Crystal	269.64
358.15 K, Crystal	270.31
359.15 K, Crystal	271.05
360 K, Crystal	271.38
360.15 K, Crystal	271.91
361.15 K, Crystal	272.57
362.15 K, Crystal	273.45
363.15 K, Crystal	274.41
364.15 K, Crystal	275.15
365 K, Crystal	275.43
365.15 K, Crystal	275.9
366.15 K, Crystal	276.72
367.15 K, Crystal	277.6
368.15 K, Crystal	278.26
369.15 K, Crystal	279.12
370 K, Crystal	279.44
370.15 K, Crystal	280
371.15 K, Crystal	280.66
372.15 K, Crystal	281.41
373.15 K, Crystal	282.03
374.15 K, Crystal	282.8
375 K, Crystal	283.41
375.15 K, Crystal	283.66
376.15 K, Crystal	284.41
377.15 K, Crystal	285.16
378.15 K, Crystal	286.02
379.15 K, Crystal	286.77
380 K, Crystal	287.33
380.15 K, Crystal	287.5
381.15 K, Crystal	288.2
382.15 K, Crystal	289.07
383.15 K, Crystal	289.93
384.15 K, Crystal	290.58
385 K, Crystal	291.21
385.15 K, Crystal	291.5
386.15 K, Crystal	292.25
387.15 K, Crystal	292.92
388.15 K, Crystal	293.5
389.15 K, Crystal	294.35
390 K, Crystal	295.04
390.15 K, Crystal	295.24
391.15 K, Crystal	295.7
392.15 K, Crystal	296.49
393.15 K, Crystal	297.22
394.15 K, Crystal	297.96
395 K, Crystal	298.83
395.15 K, Crystal	298.67
396.15 K, Crystal	299.31
397.15 K, Crystal	300.06
398.15 K, Crystal	300.77
399.15 K, Crystal	301.51
400 K, Crystal	302.58
400.15 K, Crystal	302.31
401.15 K, Crystal	303.15
402.15 K, Crystal	303.73
403.15 K, Crystal	304.44
404.15 K, Crystal	305.17
405 K, Crystal	306.28
405.15 K, Crystal	306.03
406.15 K, Crystal	306.79
407.15 K, Crystal	307.48
408.15 K, Crystal	308.4
409.15 K, Crystal	309.1
410 K, Crystal	309.94
410.15 K, Crystal	309.8
411.15 K, Crystal	310.58
412.15 K, Crystal	311.34
413.15 K, Crystal	311.98
414.15 K, Crystal	312.89
415 K, Crystal	313.58
415.15 K, Crystal	313.72
416.15 K, Crystal	314.29
417.15 K, Crystal	315.14
418.15 K, Crystal	315.93
419.15 K, Crystal	316.51
420 K, Crystal	317.18
420.15 K, Crystal	317.13
421.15 K, Crystal	317.97
422.15 K, Crystal	318.68
423.15 K, Crystal	319.32
424.15 K, Crystal	320.07
425 K, Crystal	320.78
425.15 K, Crystal	320.77
426.15 K, Crystal	321.54
427.15 K, Crystal	322.27
428.15 K, Crystal	322.94
429.15 K, Crystal	323.6
430 K, Crystal	324.37
430.15 K, Crystal	324.79
431.15 K, Crystal	325.38
432.15 K, Crystal	325.96
433.15 K, Crystal	326.58
434.15 K, Crystal	327.17
435 K, Crystal	327.98
435.15 K, Crystal	328.13
436.15 K, Crystal	328.94
437.15 K, Crystal	329.55
438.15 K, Crystal	330.45
439.15 K, Crystal	331.25
440 K, Crystal	331.62
440.15 K, Crystal	332.08
441.15 K, Crystal	332.75
442.15 K, Crystal	333.52
443.15 K, Crystal	334.28
444.15 K, Crystal	334.91
445 K, Crystal	335.31
445.15 K, Crystal	335.69
446.15 K, Crystal	336.45
447.15 K, Crystal	337.11
448.15 K, Crystal	337.97
449.15 K, Crystal	338.86
450 K, Crystal	339.09
450.15 K, Crystal	339.61
451.15 K, Crystal	340.28
452.15 K, Crystal	340.91
453.15 K, Crystal	341.76
454.15 K, Crystal	342.6
455 K, Crystal	342.97
455.15 K, Crystal	343.62
456.15 K, Crystal	344.29
457.15 K, Crystal	345.24
458.15 K, Crystal	346.14
459.15 K, Crystal	346.94
460 K, Crystal	346.99
460.15 K, Crystal	347.73
461.15 K, Crystal	348.37
462.15 K, Crystal	349.07
463.15 K, Crystal	349.91
464.15 K, Crystal	350.64
465 K, Crystal	351.2
465.15 K, Crystal	351.55
466.15 K, Crystal	352.42
467.15 K, Crystal	353.08
468.15 K, Crystal	353.97
469.15 K, Crystal	354.86
470 K, Crystal	355.62
470.15 K, Crystal	355.7
471.15 K, Crystal	356.6
472.15 K, Crystal	357.44
473.15 K, Crystal	358.19
474.15 K, Crystal	359.01
475 K, Crystal	360.31
475.15 K, Crystal	359.91
476.15 K, Crystal	360.87
477.15 K, Crystal	361.75
478.15 K, Crystal	362.53
479.15 K, Crystal	363.44
480 K, Crystal	365.32
480.15 K, Crystal	364.51
481.15 K, Crystal	365.73
482.15 K, Crystal	366.73
485 K, Crystal	370.71
513.05 K, Liquid	508.49
513.15 K, Liquid	508.52
514.15 K, Liquid	508.4
515 K, Liquid	506.99
515.15 K, Liquid	507.66
516.15 K, Liquid	505.87
517.15 K, Liquid	506.07
518.15 K, Liquid	506.35
519.15 K, Liquid	506.73
520 K, Liquid	507.22
520.15 K, Liquid	506.91
521.15 K, Liquid	507.17
522.15 K, Liquid	507.28
523.15 K, Liquid	507.22
524.15 K, Liquid	507.46
525 K, Liquid	507.46
525.15 K, Liquid	506.85
526.15 K, Liquid	507.2
527.15 K, Liquid	506.47
528.15 K, Liquid	505.89
529.15 K, Liquid	506.19
530 K, Liquid	507.69
530.15 K, Liquid	507.15
531.15 K, Liquid	507.89
532.15 K, Liquid	508.08
533.15 K, Liquid	508.54
534.15 K, Liquid	508.66
535 K, Liquid	507.93
535.15 K, Liquid	508.27
536.15 K, Liquid	508.3
537.15 K, Liquid	508.67
538.15 K, Liquid	508.45
539.15 K, Liquid	508.21
540 K, Liquid	508.16
540.15 K, Liquid	508.39
541.15 K, Liquid	508.54
542.15 K, Liquid	508.33
543.15 K, Liquid	508.45
